From patent US8530433B2, “Use of icariside II in manufacture of products for preventing or treating male or female sexual dysfunction” (Bjo-Biomed Ltd, priority 2008, dated 2013)

Tests used:
[1] = system: Primary human corpus cavernosum smooth muscle cells (CCSMCs); experiment: NOS activity in corpus cavernosum smooth muscle cells; type: cell-based; conditions: LNNA 4×10^−4 M
Protocol: Primary human corpus cavernosum smooth muscle cells ([…]) were provided by the Andrology Center of Peking University. The […] of the third passage were cultured in six well plates for two days. Then the cells were treated with icariside II or the sildenafil at a concentration of 0, 10^-9, 10^-8, 10^-7, 10^-6, 10^-5 M; or treated with icariside II (0, 10^-9, 10^-8, 10^-7, 10^-6, 10^-5 M) in the presence or absence of LNNA (4×10^-4 M). The control group was cultured with DMEM only. After 24 hours, the cells were washed three times and 180 μl lysis buffer was added into each well; 60 μl cell suspension was taken for protein concentration assay with BCA protein kit; 100 μl cell suspension was taken for NOS activity test. NOS activity (units/mg protein)=[(valueNOS-measure-valueNOS-blank)÷(38.3×10^6)]×[(2.15+supernatant volume)÷(15×S supernatant volume)]÷[protein concentration in each well].

[2] = system: PAE-EGFR cells; experiment: NOS enzyme activity in EGFR expressing PAE-EGFR cells, NOS kit; type: cell-based, porcine; conditions: PAE-EGFR cells; LNNA 10^-5 M
Protocol: (§1) Porcine vascular endothelial cells (PAE) were provided by the Institute of Urology, Peking University. The determination of the effect of icariside II on NOS activity in the endothelial cell is conducted using NOS kit (Cayman Chemical company, Ann Arbor, Mich., USA). Vascular endothelial cells (PAE) were treated with different concentrations of icariside II (0, 10^−9, 10^−8, 10^−7, 10^−6, 10^−5 and 10^−4 M) (sildenafil as the control group). 180 μl lysate was added into each culture well. 20 μl supernatant was used for protein concentration assay with BCA protein kit. And, 100 μl supernatant was analyzed for NOS activity with NOS kit (Cayman Chemical company, Ann Arbor, Mich., USA). NOS activity (units/mg)=[(valueNos-measure−valueNOS-blank)÷(38.3×10^6)]×[(2.15+supernatant volume)÷(15×supernatant volume)]÷[protein concentration of each Petri dish]. 1) The EGFR gene was subcloned into pGFP plasmid to construct pGFP-EGFR expression vector. With Liposome transfection reagent (Qigen), pGFP-EGFR was transfected into PAE cells. After the selection with 1800 μg/ml of G418, a single cell clone was selected. Western blot confirms the stable expression of EGFR in the PAE-EGFR cells.

[3] = system: Porcine vascular endothelial cells (PAE); experiment: NOS enzyme activity in vascular endothelial cells (PAE), NOS kit; type: cell-based; conditions: LNNA 10^-5 M
Protocol: as §1, with “dish].” for “dish]. 1) The EGFR gene was subcloned into pGFP plasmid to construct pGFP-EGFR expression vector. With Liposome transfection reagent (Qigen), pGFP-EGFR was transfected into PAE cells. After the selection with 1800 μg/ml of G418, a single cell clone was selected. Western blot confirms the stable expression of EGFR in the PAE-EGFR cells.”

In the case of `NC(=NCCC[C@H](N)C(=O)O)N[N+](=O)[O-]` [LNNA, reference compound], the “NOS activity after LNNA treatment” value [1] is reported as 0.3 units/mg protein, the “NOS baseline activity after treatment with NOS inhibitor” value [2] is reported as 3.27±0.319 u/mg and the “effect on the regulatory effect of icariside II on endothelial cell NOS activity” value ([3]; p<0.05) is reported as “significantly inhibited”. For the same compound, the “NOS baseline activity after treatment with NOS inhibitor” value ([3]; PAE cells) was 2.74±0.269 u/mg.
